Measurements from ChEMBL document CHEMBL4350953, “Inhibitor of Apoptosis Protein (IAP) Antagonists in Anticancer Agent Discovery: Current Status and Perspectives” (J Med Chem, 2019).
Each block holds one compound with its values, some of them ahead of it.

Columns and labels:
[1] = system: HL-60; experiment: Cytotoxicity against human HL60 cells assessed as reduction in cell viability; format: functional, cell-based
[2] = target: T1, Caspase-9 (Homo sapiens, UniProt P55211); experiment: Inhibition of N-terminal CARD domain of caspase 9 (unknown origin)
T1 sequence (P55211 whole entry): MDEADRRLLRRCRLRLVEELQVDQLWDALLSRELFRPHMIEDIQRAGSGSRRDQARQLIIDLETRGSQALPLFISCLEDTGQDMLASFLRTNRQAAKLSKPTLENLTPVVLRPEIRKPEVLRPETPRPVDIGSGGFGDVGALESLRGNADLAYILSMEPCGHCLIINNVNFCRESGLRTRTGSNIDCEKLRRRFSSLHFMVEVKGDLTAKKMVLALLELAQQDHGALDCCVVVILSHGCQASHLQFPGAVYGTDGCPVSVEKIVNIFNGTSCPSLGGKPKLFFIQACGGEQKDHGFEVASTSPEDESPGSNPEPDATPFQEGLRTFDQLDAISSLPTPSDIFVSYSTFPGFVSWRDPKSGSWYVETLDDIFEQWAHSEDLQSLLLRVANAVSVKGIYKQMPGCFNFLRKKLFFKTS

[3] = system: MDA-MB-231; experiment: Cytotoxicity against human MDA-MB-231 cells assessed as reduction in cell viability
[4] = target: Baculoviral IAP repeat-containing protein 3 (Homo sapiens, UniProt Q13489); experiment: Binding affinity to cIAP2-BIR3 domain (unknown origin)
[5] = target: T2, E3 ubiquitin-protein ligase XIAP (Homo sapiens, UniProt P98170); experiment: Binding affinity to XIAP-BIR3 domain (241 to 356 residues) (unknown origin) by fluorescence polarization-based competition assay
[6] = system: MDA-MB-231; experiment: Growth inhibition of human MDA-MB-231 cells; format: functional
[7] = target: T3, Baculoviral IAP repeat-containing protein 2 (Homo sapiens, UniProt Q13490); experiment: Binding affinity to cIAP1-BIR3 domain (unknown origin)
[8] = target: T3, Baculoviral IAP repeat-containing protein 2; experiment: Induction of cIAP1 (unknown origin) degradation
[9] = target: T2, E3 ubiquitin-protein ligase XIAP; experiment: Binding affinity to XIAP-BIR2 domain (unknown origin) by fluorescence polarization-based competition assay
[10] = target: T2, E3 ubiquitin-protein ligase XIAP; experiment: Binding affinity to XIAP-BIR2/BIR3 domain (unknown origin)

T2 sequence (P98170 whole entry, the tested form may be a part): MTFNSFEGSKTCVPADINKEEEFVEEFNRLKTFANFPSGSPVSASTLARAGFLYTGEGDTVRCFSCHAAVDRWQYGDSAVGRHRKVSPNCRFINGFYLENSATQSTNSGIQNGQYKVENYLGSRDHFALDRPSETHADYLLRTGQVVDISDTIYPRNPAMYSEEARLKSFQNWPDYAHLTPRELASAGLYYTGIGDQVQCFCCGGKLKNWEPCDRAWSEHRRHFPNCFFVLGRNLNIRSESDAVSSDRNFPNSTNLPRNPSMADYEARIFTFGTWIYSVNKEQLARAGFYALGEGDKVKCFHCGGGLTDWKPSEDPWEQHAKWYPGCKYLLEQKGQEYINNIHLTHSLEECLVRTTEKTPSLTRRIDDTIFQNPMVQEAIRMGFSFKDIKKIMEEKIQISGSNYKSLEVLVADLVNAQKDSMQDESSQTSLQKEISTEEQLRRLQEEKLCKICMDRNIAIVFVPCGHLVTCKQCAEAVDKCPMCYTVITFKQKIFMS
T3 sequence (Q13490 whole entry, the tested form may be a part): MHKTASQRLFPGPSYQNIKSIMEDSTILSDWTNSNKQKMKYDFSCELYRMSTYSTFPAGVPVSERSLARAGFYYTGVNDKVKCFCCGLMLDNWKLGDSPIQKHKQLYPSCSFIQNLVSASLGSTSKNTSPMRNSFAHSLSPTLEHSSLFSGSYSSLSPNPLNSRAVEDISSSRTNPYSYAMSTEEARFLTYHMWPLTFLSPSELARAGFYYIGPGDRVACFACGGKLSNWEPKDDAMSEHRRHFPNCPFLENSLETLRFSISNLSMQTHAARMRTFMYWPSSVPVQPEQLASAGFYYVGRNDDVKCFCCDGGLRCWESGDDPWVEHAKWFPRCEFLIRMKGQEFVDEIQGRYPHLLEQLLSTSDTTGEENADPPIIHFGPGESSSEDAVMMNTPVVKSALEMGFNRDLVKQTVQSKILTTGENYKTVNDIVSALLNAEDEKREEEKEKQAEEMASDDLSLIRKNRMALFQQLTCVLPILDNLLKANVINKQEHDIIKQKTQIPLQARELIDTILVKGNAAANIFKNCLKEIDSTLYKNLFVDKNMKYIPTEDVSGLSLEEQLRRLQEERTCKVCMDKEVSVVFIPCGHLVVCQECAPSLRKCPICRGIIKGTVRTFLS
Baculoviral IAP repeat-containing protein 3, sequence (Q13489 whole entry, the tested form may be a part): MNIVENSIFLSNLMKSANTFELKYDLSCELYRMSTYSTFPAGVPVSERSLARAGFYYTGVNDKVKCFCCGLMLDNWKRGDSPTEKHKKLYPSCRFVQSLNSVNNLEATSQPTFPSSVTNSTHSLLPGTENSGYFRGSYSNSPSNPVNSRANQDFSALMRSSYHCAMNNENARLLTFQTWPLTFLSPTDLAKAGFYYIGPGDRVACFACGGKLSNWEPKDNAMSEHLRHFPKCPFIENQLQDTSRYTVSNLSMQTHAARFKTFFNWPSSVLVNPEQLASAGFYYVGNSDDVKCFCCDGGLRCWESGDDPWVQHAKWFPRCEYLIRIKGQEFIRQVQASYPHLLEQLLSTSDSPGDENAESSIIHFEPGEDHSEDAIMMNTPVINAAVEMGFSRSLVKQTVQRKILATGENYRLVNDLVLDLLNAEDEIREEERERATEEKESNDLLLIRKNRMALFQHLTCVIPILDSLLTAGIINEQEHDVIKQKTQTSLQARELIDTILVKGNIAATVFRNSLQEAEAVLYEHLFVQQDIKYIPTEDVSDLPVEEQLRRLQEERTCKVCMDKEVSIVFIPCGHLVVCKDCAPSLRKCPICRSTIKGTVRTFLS

SMILES: CN[C@@H](C)C(=O)N[C@H]1CCCC[C@H]2CC[C@@H](C(=O)NC(c3ccccc3)c3ccccc3)N2C1=O
IC50 [1]: 1400 nM

SMILES: CN[C@@H](C)C(=O)N[C@H](C(=O)N1CCC[C@H]1C(=O)N[C@H]1CCCc2ccccc21)C(C)(C)C
EC50 [2]: 290 nM
IC50 [3]: 68 nM

SMILES: CN[C@@H](C)C(=O)NC1CCCC[C@H]2CC[C@@H](C(=O)N[C@@H](c3ccccc3)c3cn(CCCCc4ccc(CCCCn5cc([C@@H](NC(=O)[C@@H]6CC[C@@H]7CCCC[C@H](NC(=O)[C@H](C)NC)C(=O)N76)c6ccccc6)nn5)cc4)nn3)N2C1=O (stereo not given in full)
IC50 [1]: 1 nM

SMILES: CN[C@@H](C)C(=O)N[C@H](C(=O)N1CCC[C@H]1C(=O)N[C@H]1CCc2ccccc21)C(C)(C)C
Kd [5]: 29 nM

SMILES: CN[C@@H](C)C(=O)N[C@H](C(=O)N1CC[C@@H](Oc2ccccc2)[C@H]1C(=O)N[C@H]1CCCc2ccccc21)C(C)(C)C
EC50 [2]: 240 nM

SMILES: CN[C@@H](C)C(=O)N[C@H](C(=O)N1CCC[C@H]1C(=O)N[C@H]1c2ccccc2C[C@H]1OCC#CC#CCO[C@@H]1Cc2ccccc2[C@@H]1NC(=O)[C@@H]1CCCN1C(=O)[C@@H](NC(=O)[C@H](C)NC)C(C)(C)C)C(C)(C)C
GI50 [6]: < 0.06 nM
IC50 [7]: 15 nM
EC50 [8]: 0.1 nM

SMILES: CC[C@H](NC)C(=O)N[C@H](C(=O)N1C[C@H]2Cc3cc(Cl)ccc3N2C[C@H]1C(=O)N[C@H]1CCOc2ccccc21)C1CCCCC1
GI50 [6]: 15 nM

SMILES: CN[C@@H](C)C(=O)N[C@@H](CNC(=O)c1ccc(S(=O)(=O)F)cc1)C(=O)N1CCC[C@@H]1c1cncc(Cc2ccc(F)cc2)n1
IC50 [7]: > 200 nM

SMILES: CN[C@@H](C)C(=O)N[C@H]1CCCC[C@H]2CC[C@@H](C(=O)N[C@@H](c3ccccc3)c3cn(Cc4ccccc4)nn3)N2C1=O
IC50 [10]: 376 nM
IC50 [1]: 2000 nM

Now from value to compound, other results behind:

EC50 [2]: 310 nM
SMILES: CN[C@@H](C)C(=O)N[C@H](C(=O)N1CCC[C@H]1C(=O)N[C@H]1CCCc2ccccc21)C1CCCCC1
IC50 [3]: 13 nM

Kd [4]: 36 nM
SMILES: CC[C@H](NC(=O)[C@H](C)NC)C(=O)N1C[C@@H](O)C[C@H]1Cc1c(-c2[nH]c3cc(F)ccc3c2C[C@@H]2C[C@H](O)CN2C(=O)[C@H](CC)NC(=O)[C@H](C)NC)[nH]c2cc(F)ccc12 [BIRINAPANT]

Kd [5]: 28 nM
Kd [9]: 112 nM
SMILES: CN[C@@H](C)C(=O)N[C@H](C(=O)N1CCC[C@H]1C(=O)Nc1snnc1-c1ccccc1)C1CCCCC1 [GDC-0152]

GI50 [6]: 1.8 nM
Kd [7]: 1.3 nM
SMILES: CCO[C@@H]1C[C@@H]2CN(C(=O)[C@@H](NC(=O)[C@H](C)NC)C3CCC(F)(F)CC3)[C@H](C(=O)N[C@H]3CCOc4ccccc43)CN2C1
